Results on 5 compounds are retold here after patent US11926613B2, “Kinase inhibitors for the treatment of central and peripheral nervous system disorders” (UNIVERSITY OF MIAMI, priority 2017, dated 2024).

Experiment [1] concerns neurons from hippocampi of E18 rat embryos. In words: Neurite growth length (% NTL) in cultured E18 rat hippocampal neurons, 9-point dose response, 48 hours. The experiment is classed as cell-based. The following applies: Rattus norvegicus, Neuron, 48 h; for activity at 0.078 µM: 78 nM; for activity at 0.156 µM: 156 nM; for activity at 0.312 µM: 312 nM; for activity at 0.625 µM: 625 nM. On the procedure: PRE-COATING CULTURE PLATES: On the day before the experiment, 96-well plates were pre-coated by plating 50 μl of Poly-D-lysine solution (PDL, 0.5 mg/mL) in each well. The next morning, the plates were washed four or five times with HBSS or PBS (150 μl/rinse), then left in buffer until cell plating
PREPARING THE CELLS: A timed pregnant rat carrying E18 embryos was euthanized using an IACUC approved method. In a laminar flow hood, the embryos were removed and placed in a petri dish containing Hank's Balanced Salt Solution (HBSS) with 20 mM HEPES, pH 7.3. Pup brains were dissected (see Meberg et al., 2003) and hippocampi were collected in 15 mL a conical tube containing Hibernate E with SM1 (2% v/v).
Dissociation media was prepared by combining 4.5 mL of Hibernate E (without SM1) with 0.5 mL of trypsin and 100 μl of DNAse solution. The medium over the hippocampi was carefully removed and replaced with dissociation solution, then incubated at 37° C. for 15-20 minutes, occasionally swirling the tube.
Using flame polished cotton plugged Pasteur pipettes, the dissociation media was removed, and then 5 mL of Hibernate E containing SM1 were added. The tube was swirled to thoroughly wash the tissue. The tissue was allowed to settle to the bottom of the tube, and the rinse solution was carefully removed. This step was repeated 5 times to dilute out trypsin and DNAse and remove any debris from lysed cells.
The final rinse media was removed from the tube and 1 pipette-full (1-2 mL) of Hibernate E with SM1 was added. Using the flame-polished Pasteur pipette (pre-wetted with rinse media), the tube was triturated until all cells had dissociated and no visible chunks of tissue remained. Fewer than ten triturations were typically performed. The volume was adjusted to 8-12 mL using Hibernate E containing SM1, the well was mixed and cell concentration was determined.
PLATING: The cells were diluted in culture media (NbActiv4 Cell-culture media) to a final concentration of 10,000 cells/mL. The HBSS was aspirated from PDL coated plates, and 150 μL of cell solution was loaded in the middle 48 wells at 1500 cells per well. Water was loaded in the outer wells to decrease evaporation from edge wells. Cells were allowed to adhere for 2 hours in tissue culture incubator prior to treatment.
TREATMENT: Compounds were diluted to various concentrations to provide 9 dose response concentrations of 20 μM, 10 μM, 5, μM, 2.5 μM, 1.25 μM, 0.625 μM, 0.3125 μM, 0.15625 μM, and 0.078125 μM. The plates were cultured for 48 hours, exposed to the compound at the various dose response concentrations.
FIXING THE CULTURES: The culture medium was removed from the plates and immediately replaced with 100-200 μl of warm (37° C.) 4% paraformaldehyde (PFA) solution in phosphate-buffered saline (PBS). The cells were fixed for 15-20 minutes at room temperature, and then rinsed with PBS (200 μl/well×3).
STAINING AND IMAGING: The PBS was removed and replaced with 100 μl of blocking/permeabilization buffer (PBS, 0.2% fish gelatin, 0.03% Triton X-100, 0.02% NaN3), then incubated overnight at 4° C. To this was added 100 μl of primary antibody solution (mouse anti-Beta III tubulin in blocking buffer) and incubate overnight at 4° C. The wells were rinsed with PBS (200 μl×3), which was then removed and replaced with 100 μl of secondary antibody solution (Goat anti-mouse Alexa 488, 10 μg/ml Hoechst 33342, 0.2% fish gelatin, 0.02% azide, in PBS). The plate was shaken gently on a rotating shaker for 2 hours, then rinsed with PBS (200 μl×5).
The plate was imaged using a Cellomics ArrayScan VTI in 2 different channels for nuclear staining (Hoechst) and cell body/neurite staining (βIII-tubulin). Typically, nine fields per well were imaged with a 5× objective and automatically traced by the Neuronal Profiling Bioapplication. To get reproducible results, at least 200-300 valid neurons were measured per condition. […]

For experiment [2], the system named is Primary Neurons. In words: HCS neurite outgrowth assay (High Content Screening with Primary Neurons). The experiment is classed as cell-based. The note with it: Primary neuron.

For `COc1cc(C(=O)c2ccccc2O)ccc1C(=O)N[C@@H]1CNC[C@H]1NC(=O)c1ccncc1` [Example A69, N-[(3R,4R)-4-[4-(2-hydroxybenzoyl)-2-methoxybenzamido]pyrrolidin-3-yl]pyridine-4-carboxamide], in experiment [1], the activity at 0.078 µM was 94.3%, the activity at 0.156 µM came out at 96.2%, the activity at 0.312 µM is 96% and the activity at 0.625 µM is 107%. Further, in experiment [1], the activity at 1.25 µM was 110%, the activity at 2.5 µM came to 112%, the activity at 5 µM worked out at 112% and the activity at 10 µM stood at 119%. For the same compound, the activity at 20 µM in experiment [1] is 117%. For the same compound, the EC50 (commonly the concentration needed to bring the measured effect to its halfway point) in experiment [2] was 0.401 µM.

With `COc1cccc(C(=O)c2ccc(C(=O)N[C@@H]3CNC[C@H]3NC(=O)c3ccnc(N)n3)cc2)c1O` [Example A72, 2-amino-N-[(3R,4R)-4-[4-(2-hydroxy-3-methoxybenzoyl)benzamido]pyrrolidin-3-yl]pyrimidine-4-carboxamide], in experiment [1], the activity at 0.078 µM worked out at 96.4%, the activity at 0.156 µM was 94%, the activity at 0.312 µM came out at 97.7% and the activity at 0.625 µM turned out to be 108%. Besides, in experiment [1], the activity at 1.25 µM stood at 106%, the activity at 2.5 µM was determined as 105%, the activity at 5 µM is 113% and the activity at 10 µM worked out at 127%. For the same compound, the activity at 20 µM in experiment [1] worked out at 157%. In experiment [2], the EC50 was greater than 20 µM.

On to `COc1ccc(O)c(C(=O)c2ccc(C(=O)N[C@@H]3CNC[C@H]3NC(=O)Cc3cccnc3)cc2)c1F` [Example A46, 4-(2-fluoro-6-hydroxy-3-methoxybenzoyl)-N-[(3R,4R)-4-[2-(pyridin-3-yl)acetamido]pyrrolidin-3-yl]benzamide], for which, in experiment [1], the activity at 0.078 µM came to 95.6%, the activity at 0.156 µM is 95%, the activity at 0.312 µM worked out at 90.8% and the activity at 0.625 µM worked out at 77.5%. In addition, in experiment [1], the activity at 1.25 µM turned out to be 93.1%, the activity at 2.5 µM worked out at 86.8%, the activity at 5 µM was found to be 88.1% and the activity at 10 µM was determined as 100%. Moreover, the activity at 20 µM in experiment [1] was 90.2%. In experiment [2], the EC50 is 1.65 µM.

As for `COc1ccc(O)c(C(=O)c2ccc(C(=O)N[C@@H]3CNC[C@H]3NC(=O)c3ccnc4[nH]cnc34)cc2)c1F` [Example A48, N-[(3R,4R)-4-[4-(2-fluoro-6-hydroxy-3-methoxybenzoyl)benzamido]pyrrolidin-3-yl]-3H-imidazo[4,5-b]pyridine-7-carboxamide], in experiment [1], the activity at 0.078 µM came to 109%, the activity at 0.156 µM is 117%, the activity at 0.312 µM was determined as 116% and the activity at 0.625 µM came out at 120%. Besides, in experiment [1], the activity at 1.25 µM turned out to be 144%, the activity at 2.5 µM came to 219%, the activity at 5 µM is 332% and the activity at 10 µM stood at 461%. In experiment [1], the activity at 20 µM came to 421%. This compound also came in with an EC50 in experiment [2] of 6.08 µM.

Turning to `COc1ccc(OC)c(C(=O)c2ccc(C(=O)NCCNC(=O)c3ccncc3)cc2)c1F` [Example A26, 4-(2-fluoro-3,6-dimethoxybenzoyl)-N-{2-[(pyridin-4-yl)formamido]ethyl}benzamide], in experiment [1], the activity at 0.078 µM came out at 93.3%, the activity at 0.156 µM amounted to 99.2%, the activity at 0.312 µM amounted to 94.2% and the activity at 0.625 µM amounted to 99.3%. For the same compound, in experiment [1], the activity at 1.25 µM came out at 93.5%, the activity at 2.5 µM came out at 99.9%, the activity at 5 µM came to 102% and the activity at 10 µM is 97.8%. For the same compound, the activity at 20 µM in experiment [1] worked out at 117%. The EC50 in experiment [2] is greater than 20 µM.
